The source made the active and inactive calls. The calls are words filed in the database; no cut-off is given here.
Tests used:
[1] = system: Mus musculus; assay: Toxicity in mouse P388 cells allografted BDF1 mouse assessed as body weight difference at 0.25 mg/kg administered 24 hrs post challenge relative to control; type: organism-based; set-up: dose 0.25 mg/kg; conditions: in vivo
[2] = system: Mus musculus; assay: Toxicity in mouse P388 cells allografted BDF1 mouse assessed as body weight difference at 0.5 mg/kg administered 24 hrs post challenge relative to control; type: organism-based; set-up: dose 0.5 mg/kg; conditions: in vivo
[3] = system: P388; assay: Antitumor activity against mouse P388 cells allografted in BDF1 mouse assessed as increase in survival time at 0.5 mg/kg administered 24 hrs post challenge relative to control; type: functional
[4] = system: P388; assay: Antitumor activity against mouse P388 cells allografted in BDF1 mouse assessed as mouse survival at 0.12 mg/kg administered 24 hrs post challenge relative to control; type: functional, organism-based; set-up: dose 0.12 mg/kg
[5] = system: P388; assay: Antitumor activity against mouse P388 cells allografted in BDF1 mouse assessed as increase in survival time at 0.06 mg/kg administered 24 hrs post challenge relative to control; type: functional
[6] = system: B16; assay: Antitumor activity against mouse B16 cells allografted in BDF1 mouse assessed as increase in survival time at 1 mg/kg administered 24 hrs post challenge relative to control; type: functional
[7] = system: Mus musculus; assay: Toxicity in mouse P388 cells allografted BDF1 mouse assessed as body weight difference at 0.06 mg/kg administered 24 hrs post challenge relative to control; type: organism-based; set-up: dose 0.06 mg/kg; conditions: in vivo
[8] = system: P388; assay: Antitumor activity against mouse P388 cells allografted in BDF1 mouse assessed as mouse survival at 2 mg/kg administered 24 hrs post challenge relative to control; type: functional, organism-based; set-up: dose 2 mg/kg
[9] = system: P388; assay: Antitumor activity against mouse P388 cells allografted in BDF1 mouse assessed as mouse survival at 0.06 mg/kg administered 24 hrs post challenge relative to control; type: functional, organism-based; set-up: dose 0.06 mg/kg
[10] = system: P388; assay: Antitumor activity against mouse P388 cells allografted in BDF1 mouse assessed as increase in survival time at 0.12 mg/kg administered 24 hrs post challenge relative to control; type: functional
[11] = system: P388; assay: Antitumor activity against mouse P388 cells allografted in BDF1 mouse assessed as mouse survival at 0.5 mg/kg administered 24 hrs post challenge relative to control; type: functional, organism-based; set-up: dose 0.5 mg/kg
[12] = system: P388; assay: Antitumor activity against mouse P388 cells allografted in BDF1 mouse assessed as increase in survival time at 1 mg/kg administered 24 hrs post challenge relative to control; type: functional
[13] = system: Mus musculus; assay: Toxicity in mouse P388 cells allografted BDF1 mouse assessed as body weight difference at 2 mg/kg administered 24 hrs post challenge relative to control; type: organism-based; set-up: dose 2 mg/kg; conditions: in vivo
[14] = system: P388; assay: Antitumor activity against mouse P388 cells allografted in BDF1 mouse assessed as mouse survival at 0.25 mg/kg administered 24 hrs post challenge relative to control; type: functional, organism-based; set-up: dose 0.25 mg/kg
[15] = system: Mus musculus; assay: Toxicity in mouse P388 cells allografted BDF1 mouse assessed as body weight difference at 0.12 mg/kg administered 24 hrs post challenge relative to control; type: organism-based; set-up: dose 0.12 mg/kg; conditions: in vivo
[16] = system: P388; assay: Antitumor activity against mouse P388 cells allografted in BDF1 mouse assessed as increase in survival time at 0.25 mg/kg administered 24 hrs post challenge relative to control; type: functional
[17] = system: B16; assay: Antitumor activity against mouse B16 cells allografted in BDF1 mouse assessed as increase in survival time at 0.5 mg/kg administered 24 hrs post challenge relative to control; type: functional
[18] = system: P388; assay: Antitumor activity against mouse P388 cells allografted in BDF1 mouse assessed as increase in survival time at 2 mg/kg administered 24 hrs post challenge relative to control; type: functional
[19] = system: Mus musculus; assay: Toxicity in mouse P388 cells allografted BDF1 mouse assessed as body weight difference at 1 mg/kg administered 24 hrs post challenge relative to control; type: organism-based; set-up: dose 1 mg/kg; conditions: in vivo

O=C1c2c(O)ccc(O)c2C(=O)c2c(NCCNCCO)ccc(NCCNCCO)c21 [MITOXANTRONE]
Activity [1]: -2.3 g
Activity [2]: -2 g
T/C [3]: 299%
Activity [4]: Active
T/C [5]: 208%
T/C [6]: 503%
Activity [7]: -1.7 g
Activity [8]: Active
Activity [9]: Active
T/C [10]: 200%
Activity [11]: Active
T/C [12]: 277%
Activity [13]: -0.6 g
Activity [14]: Active
Activity [15]: -1.4 g
T/C [16]: 280%
T/C [17]: 466%
T/C [18]: 280%
Activity [19]: -0.6 g
